15 compounds from EPA's ToxValDB 9.5 can be followed below.

The structures appear in SMILES notation. “And” between values parts separate entries of the source, which are not always exact repeats. Equal entries are not always repeated.

Series [1] relates to Rattus norvegicus. The note with it: M/F.
For series [2], the system named is Mus musculus. The note with it: hepatic; for LOAEL: chronic, duration: 6 months, inhalation, F.
For series [3], the system named is Rattus norvegicus. The note with it: oral.
Series [4] deals with Rattus norvegicus. Particulars: oral. This is another data set of the same source.
The test system of series [5] is Mus musculus. The note with it: reproduction developmental; oral; drinking water; F; Nod/Shilt; generation: F1; F1: Endocrine: Blood: Glucose (GLU) + F1: Endocrine: Multiple Organs: Diabetes + F1: Endocrine: Pancreas: Insulitis.
In series [6] the test system is Rattus norvegicus. Particulars: oral, gavage, Crl:CD(SD).
Setting [7] is: chronic, duration: 2 years, inhalation, no effects.
Setting [8] is: subchronic, oral, myocardial degeneration, hepatotoxicity and nephrotoxicity.
The mark [9] stands for this setting: short-term, inhalation, degeneration of olfactory epithelium.
The mark [10] stands for this setting: subchronic, oral, gavage, hepatic lesions.
The mark [11] stands for this setting: reproduction developmental, oral, drinking water, neurodevelopmental effects.
Setting [12] is: chronic, duration: 2 years, oral, diet, reduced body weight.
Where [13] appears, read: developmental, inhalation, reduced pup weight in the f1 and f2 generations.
Where [14] appears, read: chronic, duration: 2 years, oral, diet, decreased body weight gain increased plantar ulcer (females).
Where [15] appears, read: reproduction developmental, oral, reduced fertility in the F1/F2b generation + Reduced relative kidney weights in F0, F1, and F2b adults.
[16] abbreviates: developmental, duration: 46 days, gavage, F, Developmental: Decreased body weight in pups on PNDs 0 and 4 (13-19% in males and 12-16% in females).
Where [17] appears, read: subchronic, duration: 46 days, gavage, M/F, Body Weight: Decreased body weight (~10%) in males during exposure and recovery and in satellite females during dosing (~23% on day 40) and ….
Where [18] appears, read: developmental, F, generation: F1, F1: Developmental: Whole Body: Pup Weight Relative to Litter (PND 0) + F1: Developmental: Whole Body: Pup Weight Relative to Litter (PND 4).
Where [19] appears, read: developmental, M/F, generation: F1, F1: Developmental: Whole Body: Live Birth Index + F1: Developmental: Whole Body: Live Pups Born + F1: Developmental: Whole Body: No. Live ….
[20] abbreviates: developmental, M, generation: F1, F1: Developmental: Whole Body: Pup Weight Relative to Litter (PND 0) + F1: Developmental: Whole Body: Pup Weight Relative to Litter (PND 4).
The mark [21] stands for this setting: reproduction developmental, duration: 42 days, M, generation: P0, P0: Blood: Albumin/Globulin (A/G) Ratio + P0: Liver: Cholesterol (CHOL), Total, Blood + P0: Liver: Hepatocellular Hypertrophy + P0: Liver: ….
Setting [22] is: reproduction developmental, duration: 46 days, F, generation: F1, F1: Whole Body: Pup Weight Relative to Litter (PND 0) + F1: Whole Body: Pup Weight Relative to Litter (PND 4).
Setting [23] is: reproduction developmental, duration: 46 days, F, generation: P0, P0: Liver: Cholesterol (CHOL), Total, Blood + P0: Liver: Phospholipid.
[24] abbreviates: reproduction developmental, duration: 46 days, M, generation: F1, F1: Whole Body: Pup Weight Relative to Litter (PND 0) + F1: Whole Body: Pup Weight Relative to Litter (PND 4).
The mark [25] stands for this setting: reproduction developmental, F, generation: P0, P0: Developmental: Uterus: Implantation + P0: Developmental: Uterus: Implantation Index + P0: Hepatic: Blood: Albumin/Globulin (A/G) Ratio….
[26] abbreviates: reproduction developmental, F, generation: P0, P0: General Toxicity: Whole Body: Clinical Observations + P0: General Toxicity: Whole Body: Maternal Body Weight Change + P0: Other Systems….
Setting [27] is: reproduction developmental, M, generation: P0, P0: General Toxicity: Whole Body: Body Weight Change + P0: General Toxicity: Whole Body: Clinical Observations + P0: Other Systems: Bone: ….
[28] abbreviates: reproduction developmental, M, generation: P0, P0: Hepatic: Blood: Albumin/Globulin (A/G) Ratio + P0: Hepatic: Liver: Alanine Aminotransferase (ALT) + P0: Hepatic: Liver: Albumin (A) + P0….
Setting [29] is: subchronic, oral, renal and hepatotoxicity.

For orientation: NOAEL means the highest tested level that showed no adverse finding. What is called LOAEL is the lowest dose or exposure tested at which an adverse effect was seen.

`CC(F)F` [1,1-Difluoroethane] showed an NOAEL with Rattus norvegicus [1] (setting [7]) of 67500 mg/m3.
In the case of `CN(C)N` [1,1-Dimethylhydrazine], the LOAEL in the series with Mus musculus [2] (C57BL/6) came out at 0.123 mg/m3.
The compound `CC(F)(F)Cl` [1-Chloro-1,1-difluoroethane] came in with an NOAEL with Rattus norvegicus [1] (setting [7]) of 82600 mg/m3.
On to `OCC(Cl)CCl` (centres undefined) [2,3-Dichloro-1-propanol], for which, in the series on Rattus norvegicus [1] (setting [8]), the LOAEL came to 35 mg/kg-day and the NOAEL was found to be 10 mg/kg-day.
For `CC=O` [Acetaldehyde], the NOAEL with Rattus norvegicus [3] (short-term, duration: 28 days, drinking water, M/F, Wistar, Food Consumption: decrease + Water Consumption: decrease + Blood Chemistry: BUN increase, T-Bil decrease, ALT decrease, ALP decrease + …) was found to be 125 mg/kg-day. In the series with Rattus norvegicus [1] (setting [9]), the LOAEL was 728 mg/m3 and the no-observed-adverse-effect level (NOAEL) is 273 mg/m3.
Turning to `BrC(Br)Br` [Bromoform], the LOAEL in the series on Rattus norvegicus [1] (setting [10]) stood at 50 mg/kg-day; with Rattus norvegicus [4] (chronic, duration: 103 weeks, gavage, M/F, Fischer 344, hepatic) it was 100 mg/kg-day. Also, the NOEL in the series on Rattus norvegicus [1] (setting [10]) was 25 mg/kg-day and 17.9 mg/kg-day. The no-observed-adverse-effect level (NOAEL) was determined as 72 mg/kg-day with Mus musculus [2] (short-term, duration: 14 days, oral, gavage, M, CD1) and 25 mg/kg-day in the series on Rattus norvegicus [4] (subchronic, duration: 13 weeks, gavage, M/F, Fischer 344, hepatic).
`[O-][Cl+][O-]` [Chlorite]: in the series on Rattus norvegicus [1] (setting [11]), the lowest observed adverse effect level (LOAEL) amounted to 6 mg/kg-day and the NOAEL stood at 3 mg/kg-day. In the series on Rattus norvegicus [4] (developmental, duration: 16 weeks, drinking water, M/F, Sprague-Dawley, developmental), this compound came in with an NOAEL of 2.9 mg/kg-day.
In the series on Rattus norvegicus [1] (setting [12]), `COc1nc(C)nc(NC(=O)NS(=O)(=O)c2ccccc2Cl)n1` [Chlorsulfuron] returned an LEL of 25 mg/kg-day and an NOEL of 5 mg/kg-day.
In the series on Rattus norvegicus [1] (setting [13]), `C1CCCCC1` [Cyclohexane] returned an LOAEL of 24100 mg/m3 and an NOAEL of 6890 mg/m3.
The compound `CCOP(=O)(OCC)SCCSCC.CCOP(=S)(OCC)OCCSCC` [Demeton] had an LEL in the series with Rattus norvegicus [1] (chronic, duration: 2 years, oral, diet, cholinesterase inhibition, optic nerve degeneration) of 0.04 mg/kg-day.
In the series with Rattus norvegicus [1] (setting [14]), `CC(C)C(Nc1ccc(C(F)(F)F)cc1Cl)C(=O)OC(C#N)c1cccc(Oc2ccccc2)c1` (centres undefined) [Fluvalinate] had an LEL of 2.5 mg/kg-day and an NOEL of 1 mg/kg-day.
For `COC(=O)C(C)Oc1ccc(Oc2ncc(C(F)(F)F)cc2Cl)cc1` (centres undefined) [Haloxyfop-methyl], in the series on Rattus norvegicus [1] (setting [15]), the LEL turned out to be 0.05 mg/kg-day and the NOEL was 0.005 mg/kg-day.
`NN` [Hydrazine] showed an LOAEL with Mus musculus [2] (ICR) of 0.262 mg/m3.
With `O=C(O)C(F)(F)C(F)(F)C(F)(F)C(F)(F)C(F)(F)C(F)(F)C(F)(F)C(F)(F)C(F)(F)C(F)(F)F` [Perfluoroundecanoic acid], the NOEL in the series on Rattus norvegicus [3] (subchronic, gavage, M, Sprague-Dawley, Body Weight Changes: Body weight gain decrease + Hematology: Fibrinogen decrease + Blood Chemistry: BUN increase, ALP increase, TP decrease…) came out at 0.1 mg/kg-day. The LOAEL with Rattus norvegicus [4] (setting [16]) was 1 mg/kg-day; with Rattus norvegicus [4] (setting [17]) it was 1 mg/kg-day; in the series with Mus musculus [5] it was 0.042 mg/kg-day; in the series with Rattus norvegicus [6] (setting [18]), 0.3 mg/kg-day; in the series with Rattus norvegicus [6] (setting [19]) it was 0.3 mg/kg-day; in the series with Rattus norvegicus [6] (setting [20]) it was 0.3 mg/kg-day. The LOAEL in the series with Rattus norvegicus [6] (reproduction developmental, F, generation: P0, P0: Cardiovascular: Heart: Heart Histopathology + P0: Cardiovascular: Heart: Heart Weight, Absolute + P0: Cardiovascular: Heart: Heart …) is 0.3 mg/kg-day; in the series on Rattus norvegicus [6] (setting [25]), 0.3 mg/kg-day; in the series on Rattus norvegicus [6] (setting [26]) it was 1 mg/kg-day; with Rattus norvegicus [6] (reproduction developmental, M, generation: P0, P0: Cardiovascular: Heart: Heart Histopathology + P0: Cardiovascular: Heart: Heart Weight, Absolute + P0: Cardiovascular: Heart: Heart …), 0.3 mg/kg-day; in the series with Rattus norvegicus [6] (setting [27]), 1 mg/kg-day; in the series on Rattus norvegicus [6] (setting [28]), 0.3 mg/kg-day. Moreover, the NOAEL worked out at 0.3 mg/kg-day with Rattus norvegicus [4] (setting [16]); 0.3 mg/kg-day with Rattus norvegicus [4] (setting [17]); 1 mg/kg-day in the series on Rattus norvegicus [4] (subchronic, duration: 46 days, gavage, M/F, Hepatic: Increased absolute and relative liver weight and centrilobular hypertrophy at 1.0 mg/kg/day); 0.004 mg/kg-day in the series with Mus musculus [5]; 0.1 mg/kg-day in the series with Rattus norvegicus [6] (setting [18]); 0.1 mg/kg-day with Rattus norvegicus [6] (setting [19]). In addition, the NOAEL stood at 0.1 mg/kg-day with Rattus norvegicus [6] (setting [20]); 0.1 mg/kg-day in the series on Rattus norvegicus [6] (setting [25]); 0.3 mg/kg-day in the series with Rattus norvegicus [6] (setting [26]); 0.3 mg/kg-day in the series with Rattus norvegicus [6] (setting [27]); 0.1 mg/kg-day in the series on Rattus norvegicus [6] (setting [28]). For the same compound, the NEL in the series with Rattus norvegicus [6] (reproduction developmental, duration: 42 days, M, generation: P0, P0: Adrenal: Adrenal Gland Histopathology + P0: Adrenal: Adrenal Gland Weight, Absolute + P0: Adrenal: Adrenal Gland Weight, Relative + P0: …) worked out at 1 mg/kg-day; in the series with Rattus norvegicus [6] (reproduction developmental, duration: 42 days, M, generation: P0, P0: Blood: Activated Partial Thromboplastin Time (APTT) + P0: Blood: Calcium (CA), Blood + P0: Blood: Fibrinogen + P0: Blood: Mean …), 0.3 mg/kg-day; with Rattus norvegicus [6] (setting [21]), 0.1 mg/kg-day; in the series with Rattus norvegicus [6] (setting [22]), 0.3 mg/kg-day; in the series on Rattus norvegicus [6] (reproduction developmental, duration: 46 days, F, generation: P0, P0: Adrenal: Adrenal Gland Histopathology + P0: Adrenal: Adrenal Gland Weight, Absolute + P0: Adrenal: Adrenal Gland Weight, Relative + P0: …) it was 1 mg/kg-day; in the series with Rattus norvegicus [6] (reproduction developmental, duration: 46 days, F, generation: P0, P0: Blood: Fibrinogen + P0: Blood: Mean Corpuscular Hemoglobin (MCH) + P0: Blood: Mean Corpuscular Volume (MCV) + P0: Kidney: Blood Urea …), 0.3 mg/kg-day. Also, the NEL in the series with Rattus norvegicus [6] (setting [23]) came to 0.1 mg/kg-day; in the series with Rattus norvegicus [6] (reproduction developmental, duration: 46 days, M/F, generation: F1, F1: Whole Body: Live Birth Index + F1: Whole Body: Live pups (PND 4) + F1: Whole Body: Live Pups Born + F1: Whole Body: Male Pups per Pups …), 1 mg/kg-day; in the series with Rattus norvegicus [6] (setting [24]), 0.3 mg/kg-day. Also, the LEL in the series on Rattus norvegicus [6] (reproduction developmental, duration: 42 days, M, generation: P0, P0: Adrenal: Adrenal Gland Weight, Absolute, Recovery + P0: Blood: Activated Partial Thromboplastin Time (APTT) + P0: Blood: Calcium (CA), …) amounted to 1 mg/kg-day; in the series with Rattus norvegicus [6] (setting [21]), 0.3 mg/kg-day; in the series on Rattus norvegicus [6] (reproduction developmental, duration: 42 days, M, generation: P0, P0: Blood: Platelets (PLT)), 0.1 mg/kg-day; with Rattus norvegicus [6] (setting [22]), 1 mg/kg-day; in the series with Rattus norvegicus [6] (reproduction developmental, duration: 46 days, F, generation: P0, P0: Adrenal: Adrenal Gland Weight, Absolute, Recovery + P0: Blood: Fibrinogen + P0: Blood: Mean Corpuscular Hemoglobin (MCH) + P0: Blood: …), 1 mg/kg-day; in the series on Rattus norvegicus [6] (reproduction developmental, duration: 46 days, F, generation: P0, P0: Blood: Total Protein (TP), Blood + P0: Thymus: Thymus Histopathology) it was 0.1 mg/kg-day. Further, the LEL in the series on Rattus norvegicus [6] (setting [23]) is 0.3 mg/kg-day; with Rattus norvegicus [6] (setting [24]), 1 mg/kg-day.
In the series with Rattus norvegicus [1] (setting [29]), `C#CCO` [Propargyl alcohol] showed an LOAEL of 15 mg/kg-day and an NOAEL of 5 mg/kg-day.
